Laboratory results as given in patent US10227357B2, “Compounds and methods for kinase modulation, and indications therefor” (Plexxikon Inc., priority 2012, dated 2019).

Legend:
c-kit kinase = biological target: T1, c-kit kinase (Homo sapiens, UniProt P10721); assay: c-Kit biochemical assay, AlphaScreen, 10 μM ATP; settings: c-kit biochemical inhibitory activity; read-out: Biochemical activity (IC50 μM) Kit
T1 construct: The c-kit (or kinase domain thereof) is an active kinase in AlphaScreen; poly-Histidine tag (in-house protein only) (cleaved yes); host or cells: E. coli BL21(DE3)RIL, co-expressed with PTP1B
Summary of the method: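 His-tagged c-Kit expressed in E. coli with co-expressed PTP1B (dephosphorylated), tag removed; 0.1 ng per reaction with biotinylated-peptide substrate in 50 mM HEPES pH 7.2, 5 mM MgCl2, 5 mM MnCl2, 5% DMSO, 10 μM ATP, 1 h at room temperature. Phosphorylation detected by AlphaScreen (streptavidin donor, PY20 acceptor beads); IC50 from 8-point 1:3 dilution series.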

c-kit mutant D816V = biological target: T2, c-kit mutant D816V (Homo sapiens, UniProt P10721, D816V/DEL694-753); assay: c-Kit mutant D816V biochemical assay, AlphaScreen; settings: c-kit D816V biochemical inhibitory activity; read-out: Biochemical activity (IC50 μM) Kit D816V
T2 construct: residues 551-934, kinase insertion domain residues 694-753 deleted; 6x-histidine (N); made in house; host or cells: E. coli Arctic Express (DE3) RIL (Stratagene)
Summary of the method: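 Purified His-tagged c-Kit D816V (E. coli-expressed) assayed in 25 mM HEPES pH 7.2 with Mg/Mn, 5% DMSO and 10 μM ATP, 30 min at room temperature, 8-point 1:3 dilutions. Phosphorylation detected by AlphaScreen with streptavidin donor and PY20 acceptor beads; IC50 from signal versus concentration.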

T2 sequence (P10721 with tags, fused parts or gaps DEL694-753/D816V): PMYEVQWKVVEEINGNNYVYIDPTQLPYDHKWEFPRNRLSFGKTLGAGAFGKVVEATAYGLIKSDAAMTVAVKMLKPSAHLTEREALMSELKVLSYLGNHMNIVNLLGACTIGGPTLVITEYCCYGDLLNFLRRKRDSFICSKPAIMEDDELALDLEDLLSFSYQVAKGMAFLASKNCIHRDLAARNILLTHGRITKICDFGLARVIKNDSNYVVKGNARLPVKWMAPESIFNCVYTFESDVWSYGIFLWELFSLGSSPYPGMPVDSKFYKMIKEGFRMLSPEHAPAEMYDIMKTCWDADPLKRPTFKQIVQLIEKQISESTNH
T1 sequence (P10721 26-976): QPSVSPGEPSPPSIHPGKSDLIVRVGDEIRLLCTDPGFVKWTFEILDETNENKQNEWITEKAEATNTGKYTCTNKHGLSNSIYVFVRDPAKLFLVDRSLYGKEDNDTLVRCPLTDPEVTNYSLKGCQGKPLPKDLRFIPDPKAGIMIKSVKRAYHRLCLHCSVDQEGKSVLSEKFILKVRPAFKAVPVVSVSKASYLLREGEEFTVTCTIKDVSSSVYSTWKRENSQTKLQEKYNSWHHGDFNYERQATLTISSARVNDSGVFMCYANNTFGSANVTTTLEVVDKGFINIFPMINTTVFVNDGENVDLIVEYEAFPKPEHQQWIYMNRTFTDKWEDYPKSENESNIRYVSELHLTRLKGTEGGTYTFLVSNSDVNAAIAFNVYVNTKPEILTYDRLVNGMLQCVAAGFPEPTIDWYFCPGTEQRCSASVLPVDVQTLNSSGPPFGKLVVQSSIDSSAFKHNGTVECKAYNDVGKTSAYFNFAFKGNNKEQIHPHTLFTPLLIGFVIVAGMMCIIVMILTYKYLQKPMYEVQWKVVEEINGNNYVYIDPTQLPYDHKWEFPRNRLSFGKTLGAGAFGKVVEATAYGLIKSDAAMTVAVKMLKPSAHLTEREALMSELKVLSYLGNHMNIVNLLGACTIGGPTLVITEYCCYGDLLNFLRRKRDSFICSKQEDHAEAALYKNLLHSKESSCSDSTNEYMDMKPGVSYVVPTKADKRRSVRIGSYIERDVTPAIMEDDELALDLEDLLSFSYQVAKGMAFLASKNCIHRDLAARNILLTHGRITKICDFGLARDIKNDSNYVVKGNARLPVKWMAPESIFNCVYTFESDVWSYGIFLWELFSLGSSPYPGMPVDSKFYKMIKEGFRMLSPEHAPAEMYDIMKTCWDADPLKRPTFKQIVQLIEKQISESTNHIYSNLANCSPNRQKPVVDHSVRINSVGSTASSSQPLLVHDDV

SMILES	IC50 (c-kit kinase) [µM]	IC50 (c-kit mutant D816V) [µM]
COc1cc2ncnc(-c3ccc(NS(C)(=O)=O)cc3F)c2cc1OCCCN1CCOCC1 [P-0252, N-[3-fluoro-4-[7-methoxy-6-(3-morpholinopropoxy)quinazolin-4-yl]phenyl]methanesulfonamide]	10 to 200	0.0001 to 1
O=S(=O)(Nc1ccc(-c2ncnc3[nH]c(-c4cc(F)ccc4F)cc23)c(F)c1)c1ccc(Cl)cc1 [P-0337, 4-chloro-N-[4-[6-(2,5-difluorophenyl)-7H-pyrrolo[2,3-d]pyrimidin-4-yl]-3-fluoro-phenyl]benzenesulfonamide]	10 to 200	0.0001 to 1
COc1cccc(CNC(=O)N2CCN(c3ncnc4[nH]c(-c5cccnc5)cc34)CC2)n1 [P-0128, N-[(6-methoxy-2-pyridyl)methyl]-4-[6-(3-pyridyl)-7H-pyrrolo[2,3-d]pyrimidin-4-yl]piperazine-1-carboxamide]	10 to 200	1 to 10
Cc1ccc(S(=O)(=O)Nc2ccc(-c3ncnc4[nH]cc(C)c34)cc2)cc1 [P-0448, 4-methyl-N-[4-(5-methyl-7H-pyrrolo[2,3-d]pyrimidin-4-yl)phenyl]benzenesulfonamide]	1 to 10	0.0001 to 1
Cc1cc2c(-c3ccc(NS(=O)(=O)c4ccc5c(c4)OCO5)cc3)ncnc2[nH]1 [P-0294, N-[4-(6-methyl-7H-pyrrolo[2,3-d]pyrimidin-4-yl)phenyl]-1,3-benzodioxole-5-sulfonamide]	10 to 200	0.0001 to 1
Cc1cc2c(-c3ccc(NS(=O)(=O)c4ccc(C)s4)cc3)ncnc2[nH]1 [P-0313, 5-methyl-N-[4-(6-methyl-7H-pyrrolo[2,3-d]pyrimidin-4-yl)phenyl]thiophene-2-sulfonamide]	1 to 10	1 to 10
C[C@H](NC(=O)N1CCN(c2ncnc3[nH]c(-c4ccc(Cl)cc4)cc23)CC1)c1ccc(Cl)cc1 [P-0188, N-[(1S)-1-(4-chlorophenyl)ethyl]-4-[6-(4-chlorophenyl)-7H-pyrrolo[2,3-d]pyrimidin-4-yl]piperazine-1-carboxamide]	1 to 10	0.0001 to 1
Cn1cc(-c2cc3c(N4CCN(C(=O)Nc5ccc(OC(F)(F)F)cc5)CC4)ncnc3[nH]2)cn1 [P-0092, 4-[6-(1-methylpyrazol-4-yl)-7H-pyrrolo[2,3-d]pyrimidin-4-yl]-N-[4-(trifluoromethoxy)phenyl]piperazine-1-carboxamide]	0.0001 to 1	0.0001 to 1
Cc1cc2c(-c3ccc(NS(=O)(=O)c4ccc(C)c(F)c4)cc3F)ncnc2[nH]1 [P-0365, 3-fluoro-N-[3-fluoro-4-(6-methyl-7H-pyrrolo[2,3-d]pyrimidin-4-yl)phenyl]-4-methyl-benzenesulfonamide]	10 to 200	1 to 10
O=S(=O)(Nc1ccc(-c2ncnc3[nH]c(-c4ccc(F)cc4F)cc23)c(F)c1)C1CC1 [P-0340, N-[4-[6-(2,4-difluorophenyl)-7H-pyrrolo[2,3-d]pyrimidin-4-yl]-3-fluoro-phenyl]cyclopropanesulfonamide]	10 to 200	0.0001 to 1
COc1ccc(-c2cc3c(N4CCN(C(=O)Nc5ccc(OC(F)(F)F)cc5)CC4)ncnc3[nH]2)cn1 [P-0118, 4-[6-(6-methoxy-3-pyridyl)-7H-pyrrolo[2,3-d]pyrimidin-4-yl]-N-[4-(trifluoromethoxy)phenyl]piperazine-1-carboxamide]	0.0001 to 1	10 to 200
COCCOc1cc2ncnc(-c3ccc(NS(=O)(=O)C4CC4)cc3F)c2cc1OCCOC [P-0263, N-[4-[6,7-bis(2-methoxyethoxy)quinazolin-4-yl]-3-fluoro-phenyl]cyclopropanesulfonamide]	10 to 200	0.0001 to 1
O=C(Nc1ccc(OC(F)(F)F)cc1)N1CCN(c2ncnc3[nH]c(-c4cccnc4)cc23)CC1 [P-0224, 4-[6-(3-pyridyl)-7H-pyrrolo[2,3-d]pyrimidin-4-yl]-N-[4-(trifluoromethoxy)phenyl]piperazine-1-carboxamide]	0.0001 to 1	0.0001 to 1
COc1ccc([C@H](C)NC(=O)N2CCN(c3ncnc4cc(-c5ccc(F)cc5)sc34)CC2(C)C)cc1 [P-0576, 4-[6-(4-fluorophenyl)thieno[3,2-d]pyrimidin-4-yl]-N-[(1S)-1-(4-methoxyphenyl)ethyl]-2,2-dimethyl-piperazine-1-carboxamide]	10 to 200	0.0001 to 1
COc1cccc([C@H](C)NC(=O)N2CCN(c3ncnc4cc(-c5ccc(F)cc5)sc34)CC2(C)C)c1 [P-0594, 4-[6-(4-fluorophenyl)thieno[3,2-d]pyrimidin-4-yl]-N-[(1S)-1-(3-methoxyphenyl)ethyl]-2,2-dimethyl-piperazine-1-carboxamide]	1 to 10	0.0001 to 1
O=C(NCc1ccc(F)cc1)N1CCN(c2ncnc3[nH]c(-c4ccc(Cl)cc4)cc23)CC1 [P-0213, 4-[6-(4-chlorophenyl)-7H-pyrrolo[2,3-d]pyrimidin-4-yl]-N-[(4-fluorophenyl)methyl]piperazine-1-carboxamide]	10 to 200	10 to 200
CCc1ccc(S(=O)(=O)NC2CCN(c3ncnc4[nH]c(-c5cnn(C)c5)cc34)CC2)s1 [P-0665, 5-ethyl-N-[1-[6-(1-methylpyrazol-4-yl)-7H-pyrrolo[2,3-d]pyrimidin-4-yl]-4-piperidyl]thiophene-2-sulfonamide]	0.0001 to 1	0.0001 to 1
C[C@@H]1CN(c2ncnc3[nH]c(-c4ccncc4)cc23)CCN1 [P-0074, 4-[(3R)-3-methylpiperazin-1-yl]-6-(4-pyridyl)-7H-pyrrolo[2,3-d]pyrimidine]	10 to 200	10 to 200
C[C@H](NC(=O)N1CCN(c2ncnc3cc(C4=CCN(S(C)(=O)=O)CC4)sc23)CC1(C)C)c1cccc(Cl)c1 [P-0553, N-[(1S)-1-(3-chlorophenyl)ethyl]-2,2-dimethyl-4-[6-(1-methylsulfonyl-3,6-dihydro-2H-pyridin-4-yl)thieno[3,2-d]pyrimidin-4-yl]piperazine-1-carboxamide]	1 to 10	0.0001 to 1
O=C(NCc1ccc(F)cc1)N1CCN(c2ncnc3cc(C4CCNCC4)sc23)CC1 [P-0596, N-[(4-fluorophenyl)methyl]-4-[6-(4-piperidyl)thieno[3,2-d]pyrimidin-4-yl]piperazine-1-carboxamide]	10 to 200	1 to 10
Cn1cc(-c2cc3c(C4=CCC(NS(=O)(=O)c5ccc(OC(F)(F)F)cc5)CC4)ncnc3[nH]2)cn1 (stereo not shown) [P-0285, N-[4-[6-(1-methylpyrazol-4-yl)-7H-pyrrolo[2,3-d]pyrimidin-4-yl]cyclohex-3-en-1-yl]-4-(trifluoromethoxy)benzenesulfonamide]	1 to 10	0.0001 to 1
COc1cccc([C@H](C)NC(=O)N2CCN(c3ncnc4cc(C5=CC(C)(C)NC(C)(C)C5)sc34)CC2)c1 [P-0574, N-[(1S)-1-(3-methoxyphenyl)ethyl]-4-[6-(2,2,6,6-tetramethyl-1,3-dihydropyridin-4-yl)thieno[3,2-d]pyrimidin-4-yl]piperazine-1-carboxamide]	1 to 10	0.0001 to 1
Cc1cc2c(-c3ccc(NS(=O)(=O)c4cccc(F)c4)cc3F)ncnc2[nH]1 [P-0358, 3-fluoro-N-[3-fluoro-4-(6-methyl-7H-pyrrolo[2,3-d]pyrimidin-4-yl)phenyl]benzenesulfonamide]	1 to 10	1 to 10
COc1cc2ncnc(-c3ccc(N)cc3F)c2cc1OC [P-0267, 4-(6,7-dimethoxyquinazolin-4-yl)-3-fluoro-aniline]	10 to 200	0.0001 to 1
Cc1ccc(S(=O)(=O)Nc2ccc(-c3ncnc4cc(C5=CCN(C(=O)C6CC6)CC5)sc34)cc2)cc1 [P-0583, N-[4-[6-[1-(cyclopropanecarbonyl)-3,6-dihydro-2H-pyridin-4-yl]thieno[3,2-d]pyrimidin-4-yl]phenyl]-4-methyl-benzenesulfonamide]	0.0001 to 1	0.0001 to 1
O=C(Nc1ccc(OC(F)(F)F)cc1)N1CCN(c2ncnc3[nH]c(-c4ccccc4F)cc23)CC1 [P-0067, 4-[6-(2-fluorophenyl)-7H-pyrrolo[2,3-d]pyrimidin-4-yl]-N-[4-(trifluoromethoxy)phenyl]piperazine-1-carboxamide]	0.0001 to 1	1 to 10
COc1cccc([C@H](C)NC(=O)N2CCN(c3ncnc4[nH]c(-c5ccc(C#N)cc5)cc34)C[C@H]2C)c1 [P-0692, (2R)-4-[6-(4-cyanophenyl)-7H-pyrrolo[2,3-d]pyrimidin-4-yl]-N-[(1S)-1-(3-methoxyphenyl)ethyl]-2-methyl-piperazine-1-carboxamide]	1 to 10	0.0001 to 1
COc1cccc([C@H](C)NC(=O)N2CCN(c3ncnc4cc(-c5ccc(F)cc5)sc34)C[C@H]2C)c1 [P-0600, (2R)-4-[6-(4-fluorophenyl)thieno[3,2-d]pyrimidin-4-yl]-N-[(1S)-1-(3-methoxyphenyl)ethyl]-2-methyl-piperazine-1-carboxamide]	10 to 200	0.0001 to 1
CNS(=O)(=O)c1cccc(-c2ncnc3[nH]c(C)cc23)c1 [P-0319, N-methyl-3-(6-methyl-7H-pyrrolo[2,3-d]pyrimidin-4-yl)benzenesulfonamide]	10 to 200	10 to 200
